From patent US9738604B2, “Ethynylbenzene derivatives” (Duke University, priority 2010, dated 2017)
Converted amounts (≈) assume the structure as drawn. Like-named read-outs stand apart in the source and are kept apart here.

Legend:
Type in all cases: cell-based
E. coli W3110 = assay: microbe, parasite or virus in culture; settings: for MIC: Escherichia coli, W3110, 22 h, read-out: MIC E. coli W3110
E. coli W3110RL = assay: microbe, parasite or virus in culture; settings: for MIC E. coli W3110RL: E. coli with lpxC of R. leguminosarum, 22 hours at 37° C., MTT; for MIC: Escherichia coli, W3110RL, 22 h, read-out: MIC E. coli W3110RL
P. aeruginosa (PAO1) = assay: MIC, P. aeruginosa; settings: for MIC: Pseudomonas aeruginosa, read-out: MIC P. aeruginosa (PAO1)
E. coli W3110PA = assay: microbe, parasite or virus in culture; settings: for MIC E. coli W3110PA: E. coli with lpxC of P. aeruginosa, 22 hours at 37° C., MTT; for MIC: Escherichia coli, W3110PA, 22 h, read-out: MIC E. coli W3110PA
[1] = P. aeruginosa PAO1, 22 hours at 37° C., MTT

SMILES | MIC E. coli W3110 (E. coli W3110) | MIC E. coli W3110RL (E. coli W3110RL) | MIC P. aeruginosa (PAO1) (P. aeruginosa (PAO1); [1]) | MIC E. coli W3110PA (E. coli W3110PA) | MIC (E. coli W3110) [µg/mL] | MIC (E. coli W3110RL) [µg/mL] | MIC (P. aeruginosa (PAO1); PAO1, 22 h) [µg/mL] | MIC (E. coli W3110PA) [µg/mL] | MIC E. coli W3110 (E. coli W3110; wild-type E. coli W3110, 22 hours at 37° C., MTT) | MIC (P. aeruginosa (PAO1); [1]) [µg/mL]
CC(C)(C)OC(=O)CC[C@H](NC(=O)c1ccc(C#CC#Cc2ccc(N)cc2)cc1)C(=O)NO [CPD-017, Tert-butyl (4S)-4-({4′-[4′-(4′-aminophenyl)buta-1′,3′-diyn-1′-yl]phenyl}formamido)-4-(hydroxycarbamoyl)butanoate] | C (key: A: <1 μg/mL; B: 1-10 μg/mL; C: 11-50 μg/mL; D: 51-100 μg/mL; E: >100 μg/mL) | E (>100 μg/mL) | E (>100 μg/mL) | E (>100 μg/mL) |  |  |  |  |  | 
CC(C)[C@@]1(NC(=O)c2ccc(C#CC#Cc3ccc(N)cc3)cc2)CCN(O)C1=O [CPD-048, (S)-4-((4-aminophenyl)buta-1,3-diynyl)-N-(1-hydroxy-3-isopropyl-2-oxopyrrolidin-3-yl)benzamide] |  |  |  |  | 1 to 10 (≈ 2.49 to 24.9 µM) | 51 to 100 (≈ 127 to 249 µM) | 51 to 100 (≈ 127 to 249 µM) | 51 to 100 (≈ 127 to 249 µM) |  | 
Nc1ccc(C#CC#Cc2ccc(C(=O)N[C@@H](CCC(=O)O)C(=O)NO)cc2)cc1 [CPD-018, (4S)-4-({4′-[4′-(4′-aminophenyl)buta-1′,3′-diyn-1′-yl]phenyl}formamido)-4-(hydroxycarbamoyl)butanoic acid] |  | E (>100 μg/mL) | C (11-50 μg/mL) | D (51-100 μg/mL) |  |  |  |  | B (1-10 μg/mL) | 
C[C@@H](O)[C@H](NS(=O)(=O)c1ccc(C#CC#Cc2ccc(N)cc2)cc1)C(=O)NO [CPD-039, (2S,3R)-2-({4′-[4′-(4′-aminophenyl)buta-1′,3′-diyn-1′-yl]benzene}sulfonamido)-N,3-dihydroxybutanamide] | B (key: A: <1 μg/mL; B: 1-10 μg/mL; C: 11-50 μg/mL; D: 51-100 μg/mL; E: >100 μg/mL) | E (>100 μg/mL) | D (51-100 μg/mL) | D (51-100 μg/mL) |  |  |  |  |  | 
CSCC[C@H](NC(=O)c1ccc(C#CC#Cc2ccc(N)cc2)cc1)C(=O)NO [CPD-028, (2S)-2-({4′-(4′-(4′-aminophenyl)buta-1′,3′-diyn-1-yl]phenyl}formamido)-N-hydroxy-4-(methylsulfanyl)butanamide] | A (key: A: <1 μg/mL; B: 1-10 μg/mL; C: 11-50 μg/mL; D: 51-100 μg/mL; E: >100 μg/mL) | E (>100 μg/mL) | E (>100 μg/mL) | E (>100 μg/mL) |  |  |  |  |  | 
Nc1ccc(C#CC#Cc2ccc(C(=O)N3CCC[C@H]3C(=O)NO)cc2)cc1 [CPD-031, (2S)-1-({4′-[4′-(4′-aminophenyl)buta-1′,3′-diyn-1-yl]phenyl}carbonyl)-N-hydroxypyrrolidine-2-carboxamide] | C (key: A: <1 μg/mL; B: 1-10 μg/mL; C: 11-50 μg/mL; D: 51-100 μg/mL; E: >100 μg/mL) | E (>100 μg/mL) | E (>100 μg/mL) | E (>100 μg/mL) |  |  |  |  |  | 
N=C(N)NCCC[C@H](NC(=O)c1ccc(C#CC#Cc2ccc(N)cc2)cc1)C(=O)NO [CPD-034, (2S)-2-({4′-[4′-(4′-aminophenyl)buta-1′,3′-diyn-1-yl]phenyl}formamido)-5′-carbamimidamido-N-hydroxypentanamide] | C (key: A: <1 μg/mL; B: 1-10 μg/mL; C: 11-50 μg/mL; D: 51-100 μg/mL; E: >100 μg/mL) | D (51-100 μg/mL) | C (11-50 μg/mL) | D (51-100 μg/mL) |  |  |  |  |  | 
Nc1cccc(C#CC#Cc2ccc(C(=O)N[C@@H](Cc3c[nH]cn3)C(=O)NO)cc2)c1 [CPD-015, (2S)-2-({4′-[4′-(3′-aminophenyl)buta-1′,3′-diyn-1′-yl]phenyl}formamido)-N-hydroxy-3-(1′H-imidazol-4′-yl)propanamide] |  |  |  |  | < 1 | > 100 | 1 to 10 (≈ 2.42 to 24.2 µM) | 51 to 100 (≈ 123 to 242 µM) |  | 
C[C@@](O)(c1ccc(O)cc1)C(NC(=O)c1ccc(C#CC#Cc2ccc(N)cc2)cc1)C(=O)NO (stereo partly drawn) [CPD-052, 4-((4-aminophenyl)buta-1,3-diynyl)-N-((3R)-3-hydroxy-1-(hydroxyamino)-3-(4-hydroxyphenyl)-1-oxobutan-2-yl)benzamide] |  |  |  |  | < 1 | 51 to 100 (≈ 109 to 213 µM) | 1 to 10 (≈ 2.13 to 21.3 µM) | 1 to 10 (≈ 2.13 to 21.3 µM) |  | 
CC(N)C(C(=O)NO)c1c[nH]c2cc(C#CC#Cc3ccc(N)cc3)ccc12 (centres unmarked) [CPD-042, 3-amino-2-{6′-[4′-(4′-aminophenyl)buta-1′,3′-diyn-1′-yl]-1′H-indol-3′-yl}-N-hydroxybutanamide] |  |  |  |  | 1 to 10 (≈ 2.69 to 26.9 µM) | 51 to 100 (≈ 137 to 269 µM) | 51 to 100 (≈ 137 to 269 µM) | 51 to 100 (≈ 137 to 269 µM) |  | 
Nc1ccccc1C#CC#Cc1ccc(C(=O)N[C@@H](Cc2c[nH]cn2)C(=O)NO)cc1 [CPD-016, (2S)-2-({4′-[4′-(2′-aminophenyl)buta-1′,3′-diyn-1′-yl]phenyl}formamido)-N-hydroxy-3′-(1′H-imidazol-4′-yl)propanamide] |  |  |  |  | 1 to 10 (≈ 2.42 to 24.2 µM) | > 100 | > 100 | 51 to 100 (≈ 123 to 242 µM) |  | 
C[C@@H](O)[C@H](NC(=O)c1ccc(C#CC#Cc2ccccc2)cc1)C(=O)NO [CPD-009, N-((2S,3R)-3-hydroxy-1-(hydroxyamino)-1-oxobutan-2-yl)-4-(phenylbuta-1,3-diynyl)benzamide] |  |  |  |  | < 1 | 1 to 10 (≈ 2.76 to 27.6 µM) | < 1 | < 1 |  | 
C[C@@H](O)[C@H](NC(=O)c1ccc(C#Cc2ccc(CN3CCOCC3)cc2)cc1)C(=O)NO [drawing 320] |  |  |  |  | < 1 | > 100 |  | < 1 |  | < 1
Nc1ccc(C#CC#Cc2ccc(C(=O)N[C@H](C(=O)NO)[C@H](O)C(F)(F)F)cc2)cc1 [CPD-057, 4-((4-aminophenyl)buta-1,3-diynyl)-N-((2S,3S)-4,4,4-trifluoro-3-hydroxy-1-(hydroxyamino)-1-oxobutan-2-yl)benzamide] |  |  |  |  | < 1 | 51 to 100 (≈ 118 to 232 µM) | < 1 | < 1 |  | 
C[C@@H](O)[C@H](NC(=O)c1ccc(C#CC#Cc2ccc(N)nc2)cc1)C(=O)NO [CPD-035, (2S,3R)-2-{4′-[[(2″-amino)pyridin-5″-yl]buta-1′,3′-diynyl]benzamido}-1,3-dihydroxybutanamide] | A (key: A: <1 μg/mL; B: 1-10 μg/mL; C: 11-50 μg/mL; D: 51-100 μg/mL; E: >100 μg/mL) | C (11-50 μg/mL) | A (<1 μg/mL) | B (1-10 μg/mL) |  |  |  |  |  | 
C[C@@H](O)[C@H](NC(=O)c1ccc(C#CC#Cc2ccc(N)cc2)cc1)C(N)=O [CPD-047, N-((2S,3R)-1-amino-3-hydroxy-1-oxobutan-2-yl)-4-((4-aminophenyl)buta-1,3-diynyl)benzamide] |  |  |  |  | 1 to 10 (≈ 2.77 to 27.7 µM) | 51 to 100 (≈ 141 to 277 µM) | 51 to 100 (≈ 141 to 277 µM) | 51 to 100 (≈ 141 to 277 µM) |  | 
CC(C)C[C@H](NC(=O)c1ccc(C#CC#Cc2ccc(N)cc2)cc1)C(=O)NO [CPD-026, (2S)-2-({4′-[4′-(4′-aminophenyl)buta-1′,3′-diyn-1-yl]phenyl}formamido)-N-hydroxy-4-methylpentanamide] | B (key: A: <1 μg/mL; B: 1-10 μg/mL; C: 11-50 μg/mL; D: 51-100 μg/mL; E: >100 μg/mL) | E (>100 μg/mL) | E (>100 μg/mL) | E (>100 μg/mL) |  |  |  |  |  | 
Nc1ccc(C#CC#Cc2ccc(C(=O)N[C@@H](Cc3c[nH]c4ccccc34)C(=O)NO)cc2)cc1 [CPD-029, (2S)-2-({4′-[4′-(4′-aminophenyl)buta-1′,3′-diyn-1′-yl]phenyl}formamido)-N-hydroxy-3-(1′H-indol-3′-yl)propanamide] | B (key: A: <1 μg/mL; B: 1-10 μg/mL; C: 11-50 μg/mL; D: 51-100 μg/mL; E: >100 μg/mL) | E (>100 μg/mL) | E (>100 μg/mL) | E (>100 μg/mL) |  |  |  |  |  | 
Nc1ccc(C#CC#Cc2ccc(C(=O)NCC(=O)NO)cc2)cc1 [CPD-024, 2-({4′-[4′-(4′-aminophenyl)buta-1′,3′-diyn-1′-yl]phenyl}formamido)-N-hydroxyacetamide] | A (key: A: <1 μg/mL; B: 1-10 μg/mL; C: 11-50 μg/mL; D: 51-100 μg/mL; E: >100 μg/mL) | E (>100 μg/mL) | D (51-100 μg/mL) | C (11-50 μg/mL) |  |  |  |  |  | 
C[C@@H](O)[C@H](NC(=O)c1ccc(C#CC#CCN(C)C)cc1)C(=O)NO [CPD-007, 4-(5-(dimethylamino)penta-1,3-diynyl)-N-((2S,3R)-3-hydroxy-1-(hydroxyamino)-1-oxobutan-2-yl)benzamide] |  |  |  |  | 1 to 10 (≈ 2.91 to 29.1 µM) | > 100 | 1 to 10 (≈ 2.91 to 29.1 µM) | 1 to 10 (≈ 2.91 to 29.1 µM) |  | 
